# Experimental data taken from patent US8642256B2, “Kinase and ubiquination assays” (Life Technologies Corporation, priority 2005, dated 2014).
# Where “and” joins values, the source holds several entries; their conditions need not be identical. Equal values may be shown once.
# Experiments:
# RAW 264.7 cells = assay: Assay of kinase from cell lysate (GFP-cJun phosphorylation, TR-FRET); format: cell-based, mouse; details: duplicates
# Protocol: RAW 264.7 cells (mouse macrophage cell line) were serum starved overnight and stimulated (or not) with 10 ug/ml of Anisomycin for 15 minutes prior to lysates being prepared. Lysates were prepared following a standard protocol, e.g., as described in the Kinase Activity Assay Kit protocol, Rev. A1 Dec. 9, 2005, Catalog#KNZ0031, BioSource (California). The protocol is outlined below.
# When using the Omnia™ Lysate Assay to determine MAPKAP-K2 activity in cell lysates, the following procedure for sample preparation may be used. This protocol has been successfully applied to several cell lines of human and mouse origin. • 1. Thaw Omnia Cell Extraction Buffer (BioSource, California) on ice. • 2. Set up and stimulate cells as desired. • 3. Collect cells in cold PBS by centrifugation (for non-adherent cells) or scraping from culture plates (for adherent cells). • 4. Centrifuge the cells at 1,500 rpm for 5 minutes at 4° C. • 5. Aspirate the PBS. • 6. Resuspend the cell pellet in Omnia Cell Extraction Buffer and transfer the lysate to a 1.5 mL microcentrifuge tube. The volume of Omnia Cell Extraction Buffer depends on the cell number and expression level of MAPKAP-K2. The optimal protein concentration of lysate should be in the range of 5 to 10 mg/mL. Add an appropriate amount of protease and phosphatase inhibitor (typically provided as a 100× stock solution) before using. Under these conditions, using 0.005 mL (25-50 μg) of the clarified cell extract will be sufficient for measurement of MAPKAP-K2 activity. • 7. Lyse the cells at 4° C. for 30 minutes on a rotator. Whole cell extract can then be briefly sonicated or put through a syringe and needle if desired. • 8. Centrifuge at 13,000 rpm for 20-30 minutes at 4° C. • 9. Transfer the clarified cell extracts to clean microcentrifuge tubes. • 10. The clarified cell extract should be stored at −80° C. until ready for analysis. Avoid repeated freeze-thaw cycles. In preparation for performing the assay, allow the samples to thaw on ice. Mix well prior to analysis.
# Lysate was serially diluted in buffer and 5 uL aliquots were assayed against 400 nM GFP-cJun in assay buffer containing 100 uM ATP. Assays were stopped by addition of EDTA and antibody, with a final anti-phospho cJun antibody concentration of 2 nM. The plate was read after 1 hour incubation and the data collected. Samples were performed in duplicates.
# [1] = biological target: T1, Epidermal Growth Factor Receptor (EGFR) Tyrosine Kinase (Homo sapiens, UniProt P00533); assay: EGFR kinase multiplex FP/TR-RET assay (LOPAC screen and follow-up); format: biochemical; details: re-assayed, two-fold dilutions
# T1 construct: purchased Invitrogen P2628
# T1 sequence (P00533 25-1210): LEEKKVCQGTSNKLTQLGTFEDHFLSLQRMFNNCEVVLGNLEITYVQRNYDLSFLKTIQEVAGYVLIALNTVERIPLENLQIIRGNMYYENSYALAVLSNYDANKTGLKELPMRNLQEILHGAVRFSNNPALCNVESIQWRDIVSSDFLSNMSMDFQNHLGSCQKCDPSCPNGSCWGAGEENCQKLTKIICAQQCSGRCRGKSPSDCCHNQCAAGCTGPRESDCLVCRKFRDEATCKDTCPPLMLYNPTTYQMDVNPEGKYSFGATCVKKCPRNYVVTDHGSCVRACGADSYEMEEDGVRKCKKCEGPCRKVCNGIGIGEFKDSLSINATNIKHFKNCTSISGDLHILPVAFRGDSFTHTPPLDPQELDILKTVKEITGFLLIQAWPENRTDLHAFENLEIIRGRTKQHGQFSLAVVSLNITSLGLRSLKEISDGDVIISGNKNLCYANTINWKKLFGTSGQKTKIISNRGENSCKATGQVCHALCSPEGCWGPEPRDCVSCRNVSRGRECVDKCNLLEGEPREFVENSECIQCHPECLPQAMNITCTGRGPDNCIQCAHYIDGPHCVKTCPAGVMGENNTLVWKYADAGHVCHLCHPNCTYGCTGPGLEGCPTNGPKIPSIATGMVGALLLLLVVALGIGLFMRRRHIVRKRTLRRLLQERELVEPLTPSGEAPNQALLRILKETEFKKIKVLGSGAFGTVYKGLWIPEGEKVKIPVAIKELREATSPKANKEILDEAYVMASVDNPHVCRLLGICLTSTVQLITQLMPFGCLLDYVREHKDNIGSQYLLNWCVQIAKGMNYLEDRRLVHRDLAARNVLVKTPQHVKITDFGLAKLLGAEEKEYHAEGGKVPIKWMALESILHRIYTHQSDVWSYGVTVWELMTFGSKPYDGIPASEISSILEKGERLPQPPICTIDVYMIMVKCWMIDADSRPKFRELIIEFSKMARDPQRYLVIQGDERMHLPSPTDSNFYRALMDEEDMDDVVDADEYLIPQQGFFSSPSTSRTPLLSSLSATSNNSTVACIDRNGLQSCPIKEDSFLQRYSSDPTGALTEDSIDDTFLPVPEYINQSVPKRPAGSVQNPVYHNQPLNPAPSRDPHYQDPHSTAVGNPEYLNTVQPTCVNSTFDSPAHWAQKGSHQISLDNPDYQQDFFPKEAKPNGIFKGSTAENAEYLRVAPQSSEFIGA
# UCH-L3 = biological target: T2, UCH-L3 (Homo sapiens, UniProt P15374); assay: Deubiquitination TR-FRET assay with GFP-Ub-Tb, inhibitor titration; format: biochemical; details: 0.1 nM UCH-L3 and 10 nM GFP-Ub-Tb
# T2 construct: purchased Boston Biochem E-325
# T2 sequence (P15374 1-230): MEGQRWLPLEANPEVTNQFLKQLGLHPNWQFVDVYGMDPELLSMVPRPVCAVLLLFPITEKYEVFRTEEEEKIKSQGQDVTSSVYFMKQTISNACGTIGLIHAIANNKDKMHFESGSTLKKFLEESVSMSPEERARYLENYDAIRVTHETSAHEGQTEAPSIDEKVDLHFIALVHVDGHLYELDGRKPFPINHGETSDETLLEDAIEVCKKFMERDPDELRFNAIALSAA
# [2] = Precipitation of compounds seen in the EGFR kinase assay; format: physicochemical; details: EGFR kinase assay conditions
molecule,measurement,setting,value
COc1ccc(C[C@H]2NC[C@H](O)[C@H]2OC(C)=O)cc1 [Anisomycin],"TR-FRET value of lysate, +Anisomycin","RAW 264.7 cells; 10 ug/ml Anisomycin 15 minutes, 0.003051758 % Cell Lysate in 5 uL Addition",0.1308 and 0.1312
same,"TR-FRET value of lysate, +Anisomycin","RAW 264.7 cells; 10 ug/ml Anisomycin 15 minutes, 0.006103516 % Cell Lysate in 5 uL Addition",0.1395 and 0.1339
same,"TR-FRET value of lysate, +Anisomycin","RAW 264.7 cells; 10 ug/ml Anisomycin 15 minutes, 0.01220703 % Cell Lysate in 5 uL Addition",0.1419 and 0.1424
same,"TR-FRET value of lysate, +Anisomycin","RAW 264.7 cells; 10 ug/ml Anisomycin 15 minutes, 0.02441406 % Cell Lysate in 5 uL Addition",0.1479 and 0.1534
same,"TR-FRET value of lysate, +Anisomycin","RAW 264.7 cells; 10 ug/ml Anisomycin 15 minutes, 0.04882813 % Cell Lysate in 5 uL Addition",0.1572 and 0.1894
same,"TR-FRET value of lysate, +Anisomycin","RAW 264.7 cells; 10 ug/ml Anisomycin 15 minutes, 0.09765625 % Cell Lysate in 5 uL Addition",0.2161 and 0.2286
same,"TR-FRET value of lysate, +Anisomycin","RAW 264.7 cells; 10 ug/ml Anisomycin 15 minutes, 0.1953125 % Cell Lysate in 5 uL Addition",0.2474 and 0.3145
same,"TR-FRET value of lysate, +Anisomycin","RAW 264.7 cells; 10 ug/ml Anisomycin 15 minutes, 0.390625 % Cell Lysate in 5 uL Addition",0.2813 and 0.3421
same,"TR-FRET value of lysate, +Anisomycin","RAW 264.7 cells; 10 ug/ml Anisomycin 15 minutes, 0.78125 % Cell Lysate in 5 uL Addition",0.3722 and 0.4739
same,"TR-FRET value of lysate, +Anisomycin","RAW 264.7 cells; 10 ug/ml Anisomycin 15 minutes, 1.5625 % Cell Lysate in 5 uL Addition",0.4554 and 0.5687
same,"TR-FRET value of lysate, +Anisomycin","RAW 264.7 cells; 10 ug/ml Anisomycin 15 minutes, 3.125 % Cell Lysate in 5 uL Addition",0.5703 and 0.707
same,"TR-FRET value of lysate, +Anisomycin","RAW 264.7 cells; 10 ug/ml Anisomycin 15 minutes, 6.25 % Cell Lysate in 5 uL Addition",0.5917 and 0.7878
same,"TR-FRET value of lysate, +Anisomycin","RAW 264.7 cells; 10 ug/ml Anisomycin 15 minutes, 12.5 % Cell Lysate in 5 uL Addition",0.7483 and 0.8384
same,"TR-FRET value of lysate, +Anisomycin","RAW 264.7 cells; 10 ug/ml Anisomycin 15 minutes, 25 % Cell Lysate in 5 uL Addition",0.8474 and 0.8571
same,"TR-FRET value of lysate, +Anisomycin","RAW 264.7 cells; 10 ug/ml Anisomycin 15 minutes, 50 % Cell Lysate in 5 uL Addition",0.9027 and 0.9226
same,"TR-FRET value of lysate, +Anisomycin","RAW 264.7 cells; cells stimulated with 10 ug/ml Anisomycin 15 minutes, 100 % Cell Lysate in 5 uL Addition",0.9796 and 0.9768
Oc1ccccc1O [Pyrocatechol],inhibitor on re-assay,[1],neither was seen to be an inhibitor
ubiquitin aldehyde,IC50,UCH-L3,0.2 nM
O=C1Nc2ccc(I)cc2/C1=C/c1cc(Br)c(O)c(Br)c1 [GW5074],precipitation in the assay,[2],seen to precipitate
CC(C)[C@@]1(NC(=O)[C@@H]2C=C3c4cccc5[nH]cc(c45)C[C@H]3N(C)C2)O[C@@]2(O)[C@@H]3CCCN3C(=O)[C@H](Cc3ccccc3)N2C1=O [Ergocristine],precipitation in the assay,[2],seen to precipitate
NC(=O)c1cc(N2CC2)c([N+](=O)[O-])cc1[N+](=O)[O-] [CB-1954],inhibitor on re-assay,[1],neither was seen to be an inhibitor
